Measurements as given in PMC8336373, “Characterization of three glutamate decarboxylases from Bacillus spp. for efficient γ-aminobutyric acid production” (Microbial Cell Factories, 2021).

What was measured:
Conditions in all cases: Na2HPO4-citric acid buffer, pH 5.0, 40 °C, 15 min, 5–150 mM L-Glu
[1] = tested on: GADZ11
Source text: HPLC of GABA (DABS-Cl derivatisation), initial rate nonlinear fit on GADZ11

[2] = tested on: GADZ1
Source text: HPLC of GABA (DABS-Cl derivatisation), initial rate nonlinear fit on GADZ1

[3] = tested on: GADZ20
Source text: HPLC of GABA (DABS-Cl derivatisation), initial rate nonlinear fit on GADZ20

Km [1]: 52.4 ± 5.44 mM | Km [2]: 45.4 ± 8.63 mM | Km [3]: 13.3 ± 1.95 mM
Compound: N[C@@H](CCC(=O)O)C(=O)O [L-Glu]
